Test results taken from patent US20120128630A1, “1-(6 MEMBERS AZO-HETEROCYCLIC)-PYRROLIN-2-ONE COMPOUNDS AS INHIBITORS OF HEPATITIS C NS5B POLYMERASE, THE PHARAMACEUTICAL COMPOSITION THEREOF AND THEIR THERAPEUTIC USE” (priority 2009, published 2012).
Read-outs that look alike come from different tables or passages of the source.

Columns and labels:
[1] = molecular target: T1, HCV NS5B with a deletion of the 21 C-terminal amino acids (Hepatitis C virus genotype 1b, UniProt Q9WMX2); test: HCV NS5B RdRp enzyme assay; assay type: biochemical
T1 construct: purified HCV NS5B with a deletion of the 21 C-terminal amino acids
Experimental: The assay was performed in a total volume of 20 μl containing 20 mM Tris pH 7.5, 1 mM DTT, 17 U RNasin, 50 mM NaCl, 10% DMSO, 5 mM MgCl2, 0.5 mM each of the 3 NTPs (ATP, CTP, GTP), 86 nM RNA template (341 nt from the 3′ end of HCV minus strand RNA), 50 nM of purified HCV NS5B with a deletion of the 21 C-terminal amino acids and 2 μCi [^3H]UTP (46 Ci.mmol^−1). The reaction mixture was incubated for 2 h at 25-30° C. and the radiolabeled products were precipitated by the addition of 10% TCA. The radioactivity incorporated was quantified by counting in a Wallac scintillation counter. Increasing concentrations of tested compounds were added to the complete RdRp reaction mixture. After a two hour incubation period at 25-30° C., the amount of labeled product was determined as above. Two types of control reactions were done: a negative control corresponding to the complete mixture without enzyme and a positive control with enzyme but without compounds. In each experiment, test and control samples are in duplicate.
The level of activity with each compound concentration was expressed with the formulae: […]
The IC50 value was calculated as the compound concentration reducing polymerase activity by 50%.

HCV replicon Luc Neo ET = test: Luc Neo ET Replicon assay; assay type: cell-based, Hepatitis C virus; conditions: Table 3, titled RdRp enzyme assay results, EC50_Replicon LucneoET, 72 hours with compound, luciferase
Method in brief: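 Huh-7-derived Luc Neo ET bicistronic HCV replicon cells (adaptive mutations E1202G, T1280I, K1846T) treated 24 h after seeding with compounds for 72 h, 1% DMSO final, 37 °C. Firefly luciferase luminescence read after lysis; % inhibition from background-corrected RLU relative to untreated signal.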

HCV NS5B genotype 1b = molecular target: T2, HCV NS5B genotype 1b (Hepatitis C virus genotype 1b, UniProt Q9WMX2); test: 3D-SCREEN assay (NS5B 3D-Screen platform, luciferase reporter gene); assay type: cell-based
T2 construct: The protein was expressed with a 21 amino acid C-terminal deletion to remove transmembrane domain; expressed in transfected cells; host or cells: Huh-7
Method in brief: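 Huh-7 cells transiently co-transfected with NS5BΔ21/Gal4-DBD, 3D-Sensor peptide I4/VP16 and firefly luciferase reporter. Compounds added 2 h after seeding, 1% DMSO final, 24 h incubation. Luciferase luminescence read; % inhibition relative to no-compound signal.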

[2] = EC50_3DS_NS5B, Table 2, titled Replicon assay results

Compound | inhibition at 10 µM [1] [%] | EC50 (HCV replicon Luc Neo ET; Hepatitis C virus, 72 h) [µM] | melting point [°C] | EC50 (HCV NS5B genotype 1b; EC50_3DS_NS5B, Table 1, 3D-SCREEN assay results, Huh-7 cells, 24 hours with compound, firefly luciferase reporter) [µM] | EC50 (HCV NS5B genotype 1b; [2]) [µM] | EC50 (HCV replicon Luc Neo ET) [µM] | EC50 (HCV NS5B genotype 1b; read-out: EC50_3DS_NS5B, Table 2, titled Replicon assay results) [µM]
Cc1ccc(N2C(=O)C(O)=C(C(=O)c3ccc(C(C)C)cc3)C2c2ccc(C(F)(F)F)cc2)nn1 (stereo not shown) [Example 63, 3-hydroxy-4-(4-isopropyl-benzoyl)-1-(6-methyl-pyridazin-3-yl)-5-(4-trifluoromethyl-phenyl)-1,5-dihydro-pyrrol-2-one] | 50 | 0.1 | 268 to 270 | 0.06 | – | – | –
Cc1ccc(N2C(=O)C(O)=C(C(=O)c3ccc(C4CCCCC4)cc3)C2c2ccc(OC(F)(F)F)cc2)nn1 (stereo not shown) [Example 125, 4-(4-cyclohexyl-benzoyl)-3-hydroxy-1-(6-methyl-pyridazin-3-yl)-5-(4-trifluoromethoxy-phenyl)-1,5-dihydro-pyrrol-2-one] | – | < 10 | 283 to 286 | – | < 10 | – | –
Cc1cnc(N2C(=O)C(O)=C(C(=O)c3ccc(C(C)C)cc3)C2c2ccc(OC(F)(F)F)cc2)cn1 (stereo not shown) [Example 128, 3-hydroxy-4-(4-isopropyl-benzoyl)-1-(5-methyl-pyrazin-2-yl)-5-(4-trifluoromethoxy-phenyl)-1,5-dihydro-pyrrol-2-one] | – | < 10 | 266 to 268 | – | < 1 | – | –
COc1ccc(N2C(=O)C(O)=C(C(=O)c3ccc(C(C)C)cc3)C2c2ccc(OC(F)(F)F)cc2)nn1 (stereo not shown) [Example 129, 3-hydroxy-4-(4-isopropyl-benzoyl)-1-(6-methoxy-pyridazin-3-yl)-5-(4-trifluoromethoxy-phenyl)-1,5-dihydro-pyrrol-2-one] | – | < 10 | 271 | – | < 1 | – | –
CC(C)c1ccc(C(=O)C2=C(O)C(=O)N(c3cccn(C)c3=O)C2c2ccc(OC(F)(F)F)cc2)cc1 (stereo not shown) [Example 130, 3-[3-hydroxy-4-(4-isopropyl-benzoyl)-2-oxo-5-(4-trifluoromethoxy-phenyl)-2,5-dihydro-pyrrol-1-yl]-1-methyl-1H-pyridin-2-one] | – | < 10 | 207 | – | < 10 | – | –
Cc1ccc(N2C(=O)C(O)=C(C(=O)c3ccc(CC(C)C)cc3)C2c2ccc(OC(F)(F)F)cc2)nn1 (stereo not shown) [Example 131, 3-hydroxy-4-(4-isobutyl-benzoyl)-1-(6-methyl-pyridazin-3-yl)-5-(4-trifluoromethoxy-phenyl)-1,5-dihydro-pyrrol-2-one] | – | < 10 | 260 | – | < 1 | – | –
Cc1ccc(N2C(=O)C(Cl)=C(C(=O)c3ccc(C(C)C)cc3)C2c2ccc(OC(F)(F)F)cc2)nn1 (stereo not shown) [Example 138, 3-chloro-4-(4-isopropyl-benzoyl)-1-(6-methyl-pyridazin-3-yl)-5-(4-trifluoromethoxy-phenyl)-1,5-dihydro-pyrrol-2-one] | – | < 10 | 293 | – | < 10 | – | –
C=C(C)c1ccc(C(=O)C2=C(O)C(=O)N(c3ccc(C)nn3)C2c2ccc(OC(F)(F)F)cc2)cc1 (stereo not shown) [Example 142, 3-hydroxy-4-(4-isopropenyl-benzoyl)-1-(6-methyl-pyridazin-3-yl)-5-(4-trifluoromethoxy-phenyl)-1,5-dihydro-pyrrol-2-one] | – | < 10 | 253 | – | < 1 | – | –
Cc1ccc(N2C(=O)C(O)=C(C(=O)c3ccc(C(C)C)cc3)C2c2ccc(OC3CCOCC3)cc2)nn1 (stereo not shown) [Example 143, 3-hydroxy-4-(4-isopropyl-benzoyl)-1-(6-methyl-pyridazin-3-yl)-5-[4-(tetrahydro-pyran-4-yloxy)-phenyl]-1,5-dihydro-pyrrol-2-one] | – | < 10 | 275 | – | < 10 | – | –
CC(C)c1ccc(C(=O)C2=C(O)C(=O)N(c3ccc(O)nn3)C2c2ccc(OC(F)(F)F)cc2)cc1 (stereo not shown) [Example 159, 3-hydroxy-1-(6-hydroxy-pyridazin-3-yl)-4-(4-isopropyl-benzoyl)-5-(4-trifluoromethoxy-phenyl)-1,5-dihydro-pyrrol-2-one] | – | < 10 | 255 | – | < 1 | – | –
C=C(C)c1ccc(C2C(C(=O)c3ccc(C(C)C)cc3)=C(O)C(=O)N2c2ccc(C)nn2)cc1 (stereo not shown) [Example 160, 3-hydroxy-5-(4-isopropenyl-phenyl)-4-(4-isopropyl-benzoyl)-1-(6-methyl-pyridazin-3-yl)-1,5-dihydro-pyrrol-2-one] | – | < 10 | 274 | – | < 1 | – | –
CC(C)c1ccc(C(=O)C2=C(O)C(=O)N(c3ccc(OCc4ccccc4)nn3)C2c2ccc(OC(F)(F)F)cc2)cc1 (stereo not shown) [Example 161, 1-(6-benzyloxy-pyridazin-3-yl)-3-hydroxy-4-(4-isopropyl-benzoyl)-5-(4-trifluoromethoxy-phenyl)-1,5-dihydro-pyrrol-2-one] | – | < 10 | 269 | – | < 1 | – | –
Cc1ccc(N2C(=O)C(O)=C(C(=O)c3ccc(C(C)C)cc3)C2c2ccc(OC(C)C)nc2)nn1 (stereo not shown) [Example 165, 3-hydroxy-5-(6-isopropoxy-pyridin-3-yl)-4-(4-isopropyl-benzoyl)-1-(6-methyl-pyridazin-3-yl)-1,5-dihydro-pyrrol-2-one] | – | < 1 | 282 | – | < 1 | – | –
Cc1ccc(N2C(=O)C(O)=C(C(=O)c3ccc(C(C)C)cc3)C2c2ccc(OC(C)C)nc2)nn1.Cl (stereo not shown) [Example 167, 3-hydroxy-5-(6-isopropoxy-pyridin-3-yl)-4-(4-isopropyl-benzoyl)-1-(6-methyl-pyridazin-3-yl)-1,5-dihydro-pyrrol-2-one; hydrochloride] | – | – | 280 | – | – | < 1 | < 1
Cc1ccc(N2C(=O)C(O)=C(C(=O)c3ccc(C(C)C)cc3)[C@H]2c2ccc(OC(F)(F)F)cc2)nn1 [Example 188, 3-hydroxy-4-(4-isopropyl-benzoyl)-1-(6-methyl-pyridazin-3-yl)-5(R)-(4-trifluoromethoxy-phenyl)-1,5-dihydro-pyrrol-2-one] | – | < 0.1 | 217 | – | < 0.1 | – | –
Cc1ccc(N2C(=O)C(O)=C(C(=O)c3ccc(C(C)C)cc3)[C@@H]2c2ccc(OC(F)(F)F)cc2)nn1 [Example 189, 3-hydroxy-4-(4-isopropyl-benzoyl)-1-(6-methyl-pyridazin-3-yl)-5(S)-(4-trifluoromethoxy-phenyl)-1,5-dihydro-pyrrol-2-one] | – | < 10 | 221 | – | < 10 | – | –
Cc1ccc(N2C(=O)C(O)=C(C(=O)c3ccc(C(C)C)cc3)[C@H]2c2ccc(C(F)(F)F)cc2)nn1 [Example 191, 3-hydroxy-4-(4-isopropyl-benzoyl)-1-(6-methyl-pyridazin-3-yl)-5(R)-(4-trifluoromethyl-phenyl)-1,5-dihydro-pyrrol-2-one] | – | < 0.1 | 251 | – | < 0.1 | – | –
Cc1ccc(C(=O)C2=C(O)C(=O)N(c3ccc(C)nn3)[C@@H]2c2ccc(OC(F)(F)F)cc2)cc1 [Example 199, 3-hydroxy-4-(4-methyl-benzoyl)-1-(6-methyl-pyridazin-3-yl)-5(R)-(4-trifluoromethoxy-phenyl)-1,5-dihydro-pyrrol-2-one] | – | < 1 | 215 | – | < 1 | – | –
